From the CombiSolv-Exp solvation set (Vermeire and Green 2021)

Test: solvent given as SMILES

COC(=O)OC
Conditions	solvation free energy, 298 K [kcal/mol]
in C1CCCCC1	-3.6
in CC(Cl)(Cl)Cl	-4.63
in CCC1CO1	-4.73
in CCCO	-3.72
in COC(C)(C)C	-4.24
in ClC(Cl)(Cl)Cl	-4.27
in ClCCCl	-5.04
in O	-3.53
in c1ccccc1	-4.66

CCCC(O)C(C)C (stereo not drawn)
Conditions	solvation free energy, 298 K [kcal/mol]
in CCCCCCCC	-5.34
in CCCCCCCCCC	-5.46

Cc1ccc(C(C)C)c(O)c1
Conditions	solvation free energy, 298 K [kcal/mol]
in CCCO	-10.2
in CCO	-10.3
in CO	-10.3
in O	-5.81

CCOc1ccccc1
Conditions	solvation free energy, 298 K [kcal/mol]
in CCCCCC	-6.02
in O	-2.22

CCCC(C)(C)O
Conditions	solvation free energy, 298 K [kcal/mol]
in CCCCCCCC	-4.59
in CCCCCCCCCC	-4.54
in O	-3.92

Clc1cc(-c2cc(Cl)c(Cl)c(Cl)c2Cl)c(Cl)c(Cl)c1Cl
Conditions	solvation free energy, 298 K [kcal/mol]
in CCCCCCCCO	-15.2
in O	-3.77

CCCCS
Conditions	solvation free energy, 298 K [kcal/mol]
in O	-0.88

CCCS
Conditions	solvation free energy, 298 K [kcal/mol]
in CC(C)CC(C)(C)C	-3.78
in O	-0.99

Cc1cccc(Nc2ccccc2C(=O)O)c1C
Conditions	solvation free energy, 298 K [kcal/mol]
in O	-6.78

C=C1C2CCC3C2C(C)(C)CCCC13C (stereo not drawn)
Conditions	solvation free energy, 298 K [kcal/mol]
in O	0.8

O=c1c2ccccc2sc2ccccc12
Conditions	solvation free energy, 298 K [kcal/mol]
in C1CCOC1	-13.2
in C1COCCO1	-12.9
in CC(C)CC(C)(C)C	-10.7
in CC(C)CCO	-11.8
in CC(C)CO	-11.7
in CC(C)O	-11.9
in CC(C)OC(C)C	-11.6
in CC(C)OCCO	-12.3
in CCC(C)O	-11.8
in CCCC(=O)OC	-12.5
in CCCC(C)CO	-11.9
in CCCC(C)O	-11.9
in CCCCC(CC)CO	-12
in CCCCCC	-10.9
in CCCCCCC	-11
in CCCCCCCC	-11.1
in CCCCCCCCC=CCCCCCCCC(=O)OCC(COC(=O)CCCCCCCC=CCCCCCCCC)OC(=O)CCCCCCCC=CCCCCCCCC	-11.8
in CCCCCCCCCCO	-12.1
in CCCCCCCCO	-12.1
in CCCCCCCO	-12
in CCCCCCO	-12
in CCCCCO	-11.9
in CCCCCOC(C)=O	-12.4
in CCCCO	-11.9
in CCCCOC(C)=O	-12.4
in CCCCOCCCC	-11.7
in CCCCOCCO	-12.4
in CCCO	-11.8
in CCCOCCO	-12.4
in CCO	-11.9
in CCOC(C)=O	-12.5
in CCOCCO	-12.4
in CO	-11.5
in COC(C)(C)C	-11.9
in COC(C)=O	-12.6
in Cc1ccc(C)cc1	-12.6
in Cc1cccc(C)c1	-12.6
in Cc1ccccc1C	-12.7
in O	-6.9

CCCCCCCCC(C)=O
Conditions	solvation free energy, 298 K [kcal/mol]
in O	-2.34

CN(C)C
Conditions	solvation free energy, 298 K [kcal/mol]
in CC(C)=O	-2.56
in CCCCCC	-2.63
in CCCCCCC	-2.44
in CCCCO	-2.91
in CCCO	-3.49
in CCO	-3.64
in CN(C)C=O	-2.41
in ClC(Cl)(Cl)Cl	-2.89
in ClC(Cl)Cl	-3.9
in O	-3.2

FC(F)=CCl
Conditions	solvation free energy, 298 K [kcal/mol]
in CCCCCCCC(=O)OCC(COC(=O)CCCCCCC)OC(=O)CCCCCCC	-1.77
in CCCCCCCCO	-1.69
in CN1CCCC1=O	-2.26
in CN(C)C=O	-1.99
in O	0.52

CC(C)CCCCCOC(=O)c1ccccc1C(=O)OCCCCCC(C)C
Conditions	solvation free energy, 298 K [kcal/mol]
in O	-6.43

CCC(C)(C)C(=O)OC1CC(C)C=C2C=CC(C)C(CCC3CC(O)CC(=O)O3)C21 (stereo not drawn)
Conditions	solvation free energy, 298 K [kcal/mol]
in CC(=O)OC(C)C	-25
in CC(=O)OCC(C)C	-24.9
in CCC(C)O	-25.1
in CCC(C)OC(C)=O	-24.9
in CCCCCCCCO	-24.8
in CCCCCCO	-25
in CCCCCO	-25
in CCCCO	-25.1
in CCCCOC(C)=O	-25
in CCCO	-25.1
in CCCOC(C)=O	-25
in CCO	-25.1
in CCOC(C)=O	-25.1
in COC(C)=O	-25.1

ClCCCl
Conditions	solvation free energy, 298 K [kcal/mol]
in Brc1cccc2ccccc12	-4.18
in C1CCOC1	-5.01
in C1COCCO1	-4.98
in CC(=O)CC(C)C	-4.68
in CC(=O)N(C)C	-5.01
in CC(=O)OCc1ccccc1	-4.59
in CC(C)OC(C)C	-3.88
in CCC(C)=O	-4.79
in CCCCCC	-3.75
in CCCCCCC	-3.7
in CCCCCCCC	-3.7
in CCCCCCCCCCCCCC	-3.49
in CCCCCCCCCCCCCCCC	-3.52
in CCCCCCCCN(CCCCCCCC)CCCCCCCC	-3.6
in CCCCCCCCO	-3.78
in CCCCCN(CCCCC)CCCCC	-3.76
in CCCCCl	-4.42
in CCCCN(C=O)CCCC	-4.62
in CCCCN(CCCC)CCCC	-3.65
in CCCCO	-3.98
in CCCCOCCCC	-4.16
in CCO	-4.03
in CCOC(C)=O	-4.72
in CCOCC	-4.45
in CNC(C)=O	-4.45
in COC(=O)OC	-4.73
in COC(C)(C)C	-4.35
in Cc1ccc(C)cc1	-4.41
in Cc1cccc(C)c1	-4.45
in Cc1ccccc1C	-4.42
in ClC(Cl)(Cl)Cl	-4.3
in ClC(Cl)Cl	-4.69
in O	-1.79
in [2H]O[2H]	-1.89
in c1ccc2ncccc2c1	-4.54
in c1ccccc1	-4.68

C#CCCCCCCC
Conditions	solvation free energy, 298 K [kcal/mol]
in O	0.74

C=C1CCC23C(C)CCC(C(C)C)C2C13 (stereo not drawn)
Conditions	solvation free energy, 298 K [kcal/mol]
in O	0.63

C=C(C)C1CCC(C)C2=C(C1)C(C)CC2 (stereo not drawn)
Conditions	solvation free energy, 298 K [kcal/mol]
in O	-0.01

CCCC1CCCC1
Conditions	solvation free energy, 298 K [kcal/mol]
in O	2.13

Cc1ccc2ccccc2c1
Conditions	solvation free energy, 298 K [kcal/mol]
in O	-2.18

CCC(C)(C)O
Conditions	solvation free energy, 298 K [kcal/mol]
in CC(=O)CC(C)=O	-5.07
in CCCCCCC	-3.85
in CCCCCCCC	-3.99
in CCCCCCCCCC	-3.99
in O	-4.43

O=c1[nH]c(=O)[nH]c(=O)[nH]1
Conditions	solvation free energy, 298 K [kcal/mol]
in O	-18.1

Cc1ccc(C(=O)O)cc1
Conditions	solvation free energy, 298 K [kcal/mol]
in C=CCCCCCCCCCCCCCC	-6.96
in CCCCCCCCO	-10.2
in O	-7.35

O=C(O)c1ccc(C(=O)O)cc1
Conditions	solvation free energy, 298 K [kcal/mol]
in CN1CCCC1=O	-16.2
in O	-11.4

C=CCCCC=C
Conditions	solvation free energy, 298 K [kcal/mol]
in CCCCOC(C)=O	-4.42
in CCOC(C)=O	-4.6
in O	1.16

C1CCNCC1
Conditions	solvation free energy, 298 K [kcal/mol]
in C1CCOC1	-5.22
in C1COCCO1	-4.95
in COC(C)(C)C	-4.87
in O	-5.11

Clc1ccc(C(c2ccc(Cl)cc2)C(Cl)Cl)cc1
Conditions	solvation free energy, 298 K [kcal/mol]
in CCCCCCCCO	-13.7
in O	-4.88

Cc1c[nH]c2ccccc12
Conditions	solvation free energy, 298 K [kcal/mol]
in O	-5.88

c1ccccc1
Conditions	solvation free energy, 298 K [kcal/mol]
in BrC(Br)C(Br)Br	-4.27
in Brc1cccc2ccccc12	-4.1
in C1=CCCCC1	-4.37
in C1=Cc2ccccc2C1	-4.39
in C1CCC(C2CCCCC2)CC1	-3.96
in C1CCCCC1	-4.21
in C1CCOC1	-4.75
in C1COCCO1	-4.53
in C=CCCCCCCCCCCCCCC	-3.83
in CC1CCCC1	-4.19
in CC1CCS(=O)(=O)C1	-4.11
in CC1COC(=O)O1	-3.88
in CC#N	-4.25
in CC(=O)CC(C)C	-4.44
in CC(=O)N(C)C	-4.29
in CC(=O)O	-3.94
in CC(=O)OCc1ccccc1	-4.26
in CC(=O)c1ccccc1	-4.28
in CC(C)(C)O	-3.71
in CC(C)=O	-4.42
in CC(C)CC(C)(C)C	-3.95
in CC(C)CCCC(C)CCCC(C)CCCCC(C)CCCC(C)CCCC(C)C	-3.69
in CC(C)CO	-3.71
in CC(C)O	-3.71
in CC(O)CO	-3.21
in CCC#N	-4.47
in CCC(C)=O	-4.49
in CCC(C)O	-3.78
in CCCC#N	-4.29
in CCCCC#N	-4.42
in CCCCC(CC)COC(=O)CCCCC(=O)OCC(CC)CCCC	-4.09
in CCCCC(CC)COC(=O)c1ccccc1C(=O)OCC(CC)CCCC	-3.9
in CCCCCC	-4.03
in CCCCCC#N	-4.36
in CCCCCCC	-4
in CCCCCCCC	-3.96
in CCCCCCCCCC	-3.98
in CCCCCCCCCCCC	-3.85
in CCCCCCCCCCCCCCCC	-3.82
in CCCCCCCCCCCCO	-3.74
in CCCCCCCCCCO	-3.59
in CCCCCCCCCOC(=O)c1ccccc1C(=O)OCCCCCCCCC	-3.98
in CCCCCCCCO	-3.81
in CCCCCCCO	-3.83
in CCCCCO	-3.86
in CCCCCl	-4.46
in CCCCN(C=O)CCCC	-4.26
in CCCCOC(=O)c1ccccc1C(=O)OCCCC	-4.23
in CCCCOC(C)=O	-3.87
in CCCCOCCCC	-4.11
in CCCO	-3.84
in CCN1CCCC1=O	-4.5
in CCN(CC)C(C)=O	-4.39
in CCNC(C)=O	-4
in CCNC=O	-3.94
in CCO	-3.88
in CCOC(=O)c1ccccc1C(=O)OCC	-4.06
in CCOC(C)=O	-4.42
in CN1CCCC1=O	-4.43
in CN1CCCCC1=O	-4.47
in CN(C)P(=O)(N(C)C)N(C)C	-4.31
in CNC(C)=O	-3.87
in CNC=O	-3.83
in CO	-3.85
in COC(=O)OC	-4.41
in COC(C)(C)C	-4.31
in COC(C)=O	-4.38
in COCCO	-4.02
in CS(C)=O	-3.96
in Cc1ccc(C)cc1	-4.37
in Cc1cccc2ccccc12	-4.17
in Cc1cccc(C)c1	-4.36
in Cc1cccc(O)c1	-4
in Cc1ccccc1	-4.47
in ClC(Cl)(Cl)Cl	-4.42
in ClC(Cl)C(Cl)Cl	-4.59
in ClC(Cl)Cl	-4.79
in ClCBr	-4.74
in ClCCCl	-4.59
in ClCCl	-4.8
in Clc1cccc2ccccc12	-4.07
in Clc1ccccc1	-4.44
in N#CCCCC#N	-3.59
in N#CCCCCC#N	-3.92
in N#CCCO	-3.5
in N#CCc1ccccc1	-4.13
in N#Cc1ccccc1	-4.35
in NC=O	-2.69
in NCCN	-3.63
in NCCO	-3.09
in NCc1ccccc1	-4.23
in Nc1ccccc1	-4.07
in O	-0.87
in O=C1CCCCC1	-4.55
in O=C1CCCO1	-4.16
in O=C(O)C(Cl)Cl	-4.09
in O=CN1CCOCC1	-4.02
in O=Cc1ccco1	-4.04
in OC1CCCCC1	-3.85
in OCC1CCCO1	-4.04
in OCCCCCO	-3.33
in OCCCCO	-3.36
in OCCCO	-3.12
in OCCCl	-3.65
in OCCO	-2.76
in OCCOCCO	-3.38
in OCCOCCOCCO	-3.43
in OCCOCCOCCOCCO	-3.56
in OCCS	-3.62
in OCCc1ccccc1	-3.96
in OCc1ccccc1	-3.94
in OCc1ccco1	-3.89
in S=C=S	-4.51
in [2H]O[2H]	-1.01
in c1ccc2c(c1)CCCC2	-4.33
in c1ccc2ncccc2c1	-4.31
in c1ccc(C2CCCCC2)cc1	-4.19
in c1ccncc1	-4.51
in c1ccsc1	-4.61
